The text below walks through data of ChEMBL document CHEMBL1201862, “PubChem BioAssay data set” (2004).

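Step 1: Grow cells in 96-well plates. Step 2: Expose to compound for 48 hours at 5 concentrations. Step 3: Interpolate endpoints linearly; if unreached, use highest concentration. GI50 = concentration required for 50% inhibition of growth.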 Calls of active or inactive are those of the source. No stated cut-off is given here; in the data, active = GI50 up to about 1.1 µM and inactive = higher.

What all share (test): NCI-60 cell line screen, 48 h
The test system of assay [1] is A549.
Assay [2] deals with EKVX.
Assay [3] has as its system HCT-15.
The test system of assay [4] is HOP-92.
The subject of assay [5] is HT-29.
Assay [6] has as its system LXFL 529.
The subject of assay [7] is NCI-H226.
The test system of assay [8] is OVCAR-8.
For assay [9], the system named is RXF 393.
Assay [10] has as its system SF-295.
Assay [11] concerns SF-539.
Assay [12] has as its system SN12C.
For assay [13], the system named is SW-620.
The test system of assay [14] is U-251.
Assay [15] deals with UO-31.
Assay [16] relates to OVCAR-5.
Assay [17] concerns SK-MEL-2.
Assay [18] concerns MDA-MB-231.
Assay [19] deals with MDA-N.
The subject of assay [20] is NCI/ADR-RES.

With `Oc1cccc(-c2cccc(O)n2)n1`, the GI50 in [1] is > 100 µM (inactive); in [2] it was > 100 µM (inactive); in assay [3], over 100 µM; in assay [4], 26.3 µM (inactive); in [5], > 100 µM (inactive); in assay [6], > 100 µM (inactive). Further, the GI50 in assay [7], in assay [8], in [9], in assay [10], in assay [11] and in assay [12] was > 100 µM (inactive) throughout. The GI50 in assay [13], in [14] and in assay [15] was > 100 µM (inactive) throughout.

Take `COc1ccc(/N=c2\ssc3c(=S)ssc23)cc1`: the GI50 in assay [1] was 31.1 µM (inactive); in assay [3] it was 18.3 µM; in assay [4], 15.5 µM (inactive); in [6] it was 14.8 µM (inactive); in assay [7] it was > 100 µM (inactive); in [16] it was 30.2 µM (inactive). The GI50 in assay [8] is 17 µM (inactive); in assay [9] it was 21.2 µM (inactive); in [10], 53.3 µM (inactive); in [11] it was 27.4 µM (inactive); in assay [17] it was 60 µM (inactive); in assay [12], 37.8 µM (inactive). For the same molecule, the GI50 is 15.3 µM (inactive) in assay [13] and 28.4 µM (inactive) in assay [14].

For the molecule `NS(=O)(=O)c1ccc(-c2ccc([As](=O)(O)O)cc2)cc1`, the GI50 is > 100 µM (inactive) in [1]; > 100 µM (inactive) in assay [2]; over 100 µM in [3]; > 100 µM (inactive) in assay [4]; > 100 µM (inactive) in assay [5]; > 100 µM (inactive) in assay [18]. The GI50 in assay [19], in assay [7], in assay [20], in [16], in assay [8] and in assay [9] was > 100 µM (inactive) throughout. For the same molecule, the GI50 in [10], in [11], in assay [17], in [12], in assay [13] and in assay [14] was > 100 µM (inactive) throughout. In addition, the GI50 in [15] was > 100 µM (inactive).

On to `Cc1cc(C)c2c(c1)Nc1ccccc1P2c1ccccc1` (configuration not stated), for which the GI50 in assay [1] was 32.1 µM (inactive); in assay [2] it was 23.5 µM (inactive); in assay [3] it was 16.9 µM; in assay [4] it was 30.9 µM (inactive); in [5] it was 20.3 µM (inactive); in [6], 29.2 µM (inactive). The GI50 in assay [8] is 31.6 µM (inactive); in assay [9], 29.2 µM (inactive); in assay [10] it was 20 µM (inactive); in assay [12], 9.82 µM (inactive); in [13], 39.8 µM (inactive); in assay [14] it was 31.7 µM (inactive). Besides, in assay [15], the GI50 is 19.1 µM (inactive).

On to `Cn1c(N)nc(-c2ccc(Cl)cc2)c1SSc1c(-c2ccc(Cl)cc2)nc(N)n1C`, for which the GI50 was 12.8 µM (inactive) in assay [1]; 2.73 µM (inactive) in assay [2]; 1.77 µM in assay [3]; 1.97 µM (inactive) in [4]; 2.3 µM (inactive) in assay [5]; 1.4 µM (inactive) in assay [18]. The GI50 was 1.77 µM (inactive) in assay [19]; 37.2 µM (inactive) in assay [7]; 2.1 µM (inactive) in assay [20]; 1.86 µM (inactive) in [16]; 2.86 µM (inactive) in [8]; 2.43 µM (inactive) in assay [9]. For the same molecule, the GI50 in assay [10] is 6.93 µM (inactive); in assay [11] it was 1.71 µM (inactive); in [17], 17.8 µM (inactive); in assay [12], 3.42 µM (inactive); in assay [13] it was 2.07 µM (inactive); in assay [14], 2.03 µM (inactive). For the same molecule, in assay [15], the GI50 was 1.85 µM (inactive).

For the molecule `CCCCN(CC)C(=O)C1=C(C)NC(C)=C(C(=O)N(CC)CCCC)C1`, the GI50 is > 100 µM (inactive) in assay [1]; > 100 µM (inactive) in assay [2]; over 100 µM in [3]; > 100 µM (inactive) in [4]; > 100 µM (inactive) in assay [5]; > 100 µM (inactive) in [18]. The GI50 in assay [19] was > 100 µM (inactive); in assay [7], 88.9 µM (inactive); in assay [20], > 100 µM (inactive); in assay [16], > 100 µM (inactive); in assay [8], > 100 µM (inactive); in assay [9], > 100 µM (inactive). The GI50 in [10], in assay [11], in assay [17], in assay [12], in assay [13] and in assay [14] was > 100 µM (inactive) in each case. Moreover, in [15], the GI50 was > 100 µM (inactive).

Take `NCCCCC(=O)c1cccnc1`: the GI50 in assay [1] is > 100 µM (inactive); in assay [2] it was > 100 µM (inactive); in assay [3] it was over 100 µM; in [4], > 100 µM (inactive); in assay [5], > 100 µM (inactive); in assay [6] it was > 100 µM (inactive). In addition, the GI50 in assay [16], in [8], in [10], in assay [11], in [17] and in assay [13] was > 100 µM (inactive) each time. Besides, the GI50 in [14] and in assay [15] was > 100 µM (inactive) throughout.

With `CC(C)(CN1CCCCC1)C(=O)/C=C/c1ccc(Cl)cc1`, the GI50 in assay [1] was 3.42 µM (inactive); in assay [2] it was 3.3 µM (inactive); in [3], 2.65 µM; in assay [4], 1.6 µM (inactive); in assay [5] it was 3.22 µM (inactive); in assay [6], 2.54 µM (inactive). Also, the GI50 in [7] was 4.41 µM (inactive); in [16] it was 11.4 µM (inactive); in [8] it was 2.32 µM (inactive); in assay [9], 3.86 µM (inactive); in assay [10], 3.03 µM (inactive); in assay [11], 2.23 µM (inactive). Further, the GI50 in assay [12] is 2.61 µM (inactive); in [13], 2.57 µM (inactive); in assay [14], 3.51 µM (inactive); in assay [15], 7.5 µM (inactive).

Turning to `C/C(=N/NS(=O)(=O)c1ccccc1)c1cccc[n+]1[O-]`, the GI50 in [1] was > 100 µM (inactive); in assay [2], > 100 µM (inactive); in [3], over 100 µM; in assay [4], > 100 µM (inactive); in assay [5] it was > 100 µM (inactive); in [6] it was > 100 µM (inactive). The GI50 in assay [16], in assay [8], in [10], in assay [11], in [12] and in assay [13] was > 100 µM (inactive) each time. Further, the GI50 in [14] and in assay [15] was > 100 µM (inactive) in each case.

Regarding `S=C1N(/N=C/c2c3ccccc3cc3ccccc23)C(=N\c2ccccc2)/C(=N/c2ccccc2)N1c1ccccc1`, the GI50 in [1] was > 100 µM (inactive); in assay [2], > 100 µM (inactive); in [3], over 100 µM; in assay [4], > 100 µM (inactive); in [5], > 100 µM (inactive); in [18] it was > 100 µM (inactive). Further, the GI50 in [19], in [7], in [20], in [16], in assay [8] and in assay [9] was > 100 µM (inactive) in each case. Also, the GI50 in assay [10], in assay [11], in assay [17], in assay [12], in assay [13] and in assay [14] was > 100 µM (inactive) throughout. The GI50 in assay [15] is > 100 µM (inactive).

As for `CCOC(=O)CC[C@@H](NC(=O)c1ccc(N[C@@H]2c3cc4c(cc3C(c3cc(OC)c(O)c(OC)c3)C3C(=O)OC[C@@H]32)OCO4)cc1)C(=O)OCC` (some centres not stated), the GI50 was 0.0222 µM (active) in assay [1]; 0.0251 µM (active) in [2]; 0.0637 µM in [3]; 0.0205 µM (active) in assay [4]; 0.0427 µM (active) in assay [5]; 7.23 µM (inactive) in assay [6]. In addition, the GI50 in [16] is 0.0652 µM (active); in assay [8] it was 0.0251 µM (active); in assay [10], 0.0121 µM (active); in assay [11], 0.0157 µM (active); in assay [17], 0.0863 µM (active); in assay [12] it was 0.0256 µM (active). For the same molecule, the GI50 in assay [13] was 0.0396 µM (active); in assay [14], 0.0175 µM (active); in assay [15], 0.0627 µM (active).

Take `COC1=NN2C(OC)(c3ccccc3)c3c(-c4ccccc4)sc(-c4ccccc4)c3C2(c2ccccc2)S1` (configuration not stated): the GI50 in assay [1] is > 100 µM (inactive); in assay [3] it was over 100 µM; in assay [4], > 100 µM (inactive); in assay [5], > 100 µM (inactive); in assay [6], > 100 µM (inactive); in [16] it was > 100 µM (inactive). Moreover, the GI50 in assay [8], in assay [10], in assay [11], in assay [17], in assay [12] and in assay [13] was > 100 µM (inactive) in each case. The GI50 in assay [14] and in assay [15] was > 100 µM (inactive) each time.

In the case of `CC1O[C@@H]2CCCCC(=O)[C@]2(C)[C@H]1C` (some centres not stated), the GI50 in [1] is > 100 µM (inactive); in assay [2], > 100 µM (inactive); in assay [3] it was over 100 µM; in [4], > 100 µM (inactive); in assay [5], > 100 µM (inactive); in [6], > 100 µM (inactive). The GI50 was > 100 µM (inactive) in assay [7]; > 100 µM (inactive) in assay [16]; > 100 µM (inactive) in assay [8]; 70.3 µM (inactive) in [9]; > 100 µM (inactive) in assay [10]; > 100 µM (inactive) in assay [17]. Besides, the GI50 in [12], in assay [13], in assay [14] and in [15] was > 100 µM (inactive) throughout.
